Where two headings read alike, the source gives them in different places.
How the values were obtained:
male NMRI mice = experiment: Phencyclidine (PCP)-induced hyperlocomotion in mice (video tracking); format: in vivo; conditions: for ED50: Mus musculus, sc, PCP 5 mg/kg s.c., criterion total distance <5500 counts, read-out: ED50 PCP-Inh. (inhibition of PCP-induced hyperlocomotion)
Experimental: On the day of experiments, the mice were brought into the procedural room. They were housed individually and allowed to acclimate for at least a half hour prior to testing. Although the studies were conducted during the light cycle (from 8:00 to 16:00 h), the procedure room was only sparsely lit (3 to 30 LUX) to provide better contrast for the video tracking. Local lighting was used for the injection procedures. During each trial, an individual mouse was placed in an open field arena (grey PVC cylinder with a height of 40 cm and a diameter of 22.5 cm). Each arena was placed on an infrared LED (8×8 LEDs)-lit box (white PVC squared box; 40×40 cm^2; height 12.5 cm). Each mouse was placed in the center of the arena and allowed to explore freely for 30 min. After each trial, the arena was cleaned with a wet and subsequently with a dry cleaning cloth. An infrared sensitive tube camera and a white light source (in arena: 4-7 LUX) were mounted to the ceiling above the observation chamber to record and input activity to a computer. Animal behavior was recorded and analyzed using the Noldus Ethovision XT Video Tracking System (Version 3.1; Noldus, Wageningen, The Netherlands). The total distance traveled (cm) was calculated. Data were then exported to data management systems for further analysis and reporting. Phencyclidine (PCP)-Induced Hyperlocomotion in Mice Test compound or solvent was administered at a pre-defined time before measurement (standard: 30 min) to male NMRI mice that were challenged with phencyclidine (PCP; 5 mg/kg, s.c.) 30 min before measurement. Activity was measured for a period of 30 min. Criterion for drug-induced inhibition of hyperlocomotion: total distance<5500 counts (3.9% false positives in controls; n=154). Conditioned Avoidance Response (CAR) Test Apparatus The apparatus consisted of an inner box surrounded by an outer box. The inner box was composed of four walls of transparent, synthetic material (length×width×height: 30×30×30 cm), an open top, and a grid floor made of 15 pairs of iron bars (2 mm diameter; 6 mm inter-bar distance). Odd and even bars were connected with a source of alternative current (1.0 mA; Coulbourn Instruments Solid State Shocker/Distributor), which could be interrupted by a switch. The outer box was composed of the same material (length×width×height: 40×40×36 cm), also with an open top, with a distance of 5 cm between the inner and outer box on all sides. To decrease the amount of environmental stimuli, three walls of the outer box were made non-transparent. The front wall was left transparent to allow the necessary inspection of the animal during the test. The upper edge of the outer and inner box served as a target for the rats on which to jump with fore- and hind-paws, respectively. Avoidance Conditioning and Selection of Animals From their arrival in the laboratory on the experimental day, male Wiga Wistar rats (230±30 g) were housed in individual cages provided with bedding material. […] Experimental Sessions The rats were tested 3 times, i.e. at 60, 90 and 120 min after the injection of test compound or solvent. Latency to avoidance was recorded. The median avoidance response obtained over the three experimental sessions for each rat were used for further calculations. […] Sleep Wake Electroencephalography (SW-EEG) in Rats SW-EEG analyses are a highly sensitive read-out of a compound's central functional activity that may provide additional insight in the potential therapeutic application (i.e. via drug classification fingerprinting). […] Internal efforts have confirmed that this effect is mGlu2 receptor-mediated, i.e. is absent in mGlu2 KO mice. Sleep abnormalities are often associated with CNS disorders; as such, the potential use of mGlu2 modulators could also have benefit in the treatment of CNS disorders in which (REM) sleep aberrations are manifested. […]

human mGluR2 receptor = target: T1, human mGluR2 receptor (Homo sapiens, UniProt Q14416); experiment: [35S]GTPγS binding assay (PAM assay, membranes from CHO cells transfected with the human mGluR2 receptor); format: biochemical; conditions: in presence of glutamate at EC20; pEC50 = -log EC50 (mol/L); read-out: GTPγS-hR2 PAM pEC50 (converted)
T1 construct: expressed in transfected cells; host or cells: CHO cells (membranes)
T1 sequence (Q14416 19-872): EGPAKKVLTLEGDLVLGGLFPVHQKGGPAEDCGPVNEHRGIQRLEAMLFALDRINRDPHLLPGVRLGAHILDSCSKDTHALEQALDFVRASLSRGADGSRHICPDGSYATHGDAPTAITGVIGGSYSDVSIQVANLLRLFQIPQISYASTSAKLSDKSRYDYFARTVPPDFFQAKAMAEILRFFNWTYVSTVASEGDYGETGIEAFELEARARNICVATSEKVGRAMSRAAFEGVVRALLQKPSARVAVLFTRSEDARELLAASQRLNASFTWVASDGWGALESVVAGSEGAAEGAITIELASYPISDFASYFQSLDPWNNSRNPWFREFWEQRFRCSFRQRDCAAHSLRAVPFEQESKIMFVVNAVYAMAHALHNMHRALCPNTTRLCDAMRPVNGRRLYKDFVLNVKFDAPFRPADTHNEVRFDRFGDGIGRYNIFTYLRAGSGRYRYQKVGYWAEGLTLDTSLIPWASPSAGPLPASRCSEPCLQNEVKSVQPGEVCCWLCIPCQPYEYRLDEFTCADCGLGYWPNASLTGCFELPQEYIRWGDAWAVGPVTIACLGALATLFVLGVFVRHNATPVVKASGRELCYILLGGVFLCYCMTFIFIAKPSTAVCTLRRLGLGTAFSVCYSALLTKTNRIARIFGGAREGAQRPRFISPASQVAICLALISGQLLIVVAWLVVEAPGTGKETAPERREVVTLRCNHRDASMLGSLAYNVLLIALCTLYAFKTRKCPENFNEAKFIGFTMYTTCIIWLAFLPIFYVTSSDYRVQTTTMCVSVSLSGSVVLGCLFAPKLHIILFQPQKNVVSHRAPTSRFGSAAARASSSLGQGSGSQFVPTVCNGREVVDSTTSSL
Experimental: The [^35S]GTPγS binding assay is a functional membrane-based assay used to study G-protein coupled receptor (GPCR) function whereby incorporation of a non-hydrolysable form of GTP, [^35S]GTPγS (guanosine 5′-triphosphate, labelled with […] ^35S), is measured. The G-protein α subunit catalyzes the exchange of guanosine 5′-diphosphate (GDP) by guanosine triphosphate (GTP) and on activation of the GPCR by an agonist, [^35S]GTPγS, becomes incorporated and cannot be cleaved to continue the exchange cycle (Harper (1998) Current Protocols in Pharmacology 2.6.1-10, John Wiley & Sons, Inc.). […] Here we describe the use of the [^35S]GTPγS binding assay using membranes from cells transfected with the human mGluR2 receptor and adapted from Schaffhauser et al. ((2003) Molecular Pharmacology 4:798-810) for the detection of the positive allosteric modulation (PAM) properties of the compounds of this invention.
CHO-cells were cultured to pre-confluence and stimulated with 5 mM butyrate for 24 h, prior to washing in PBS, and then collected by scraping in homogenisation buffer (50 mM Tris-HCl buffer, pH 7.4, 4° C.). Cell lysates were homogenized briefly using an ultra-turrax homogenizer. The homogenate was centrifuged at 16,000 RPM (Sorvall RC-5C plus rotor SS-34) for 10 minutes and the supernatant discarded. The pellet was resuspended in 5 mM Tris-HCl, pH 7.4 and centrifuged again (18,000 RPM, 20 min, 4° C.). The final pellet was resuspended in 50 mM Tris-HCl, pH 7.4 and stored at −80° C. in appropriate aliquots before use. Protein concentration was determined by the Bradford method (Bio-Rad, USA) with bovine serum albumin as standard.
Measurement of mGluR2 positive allosteric modulatory activity of test compounds was performed as follows. Test compounds and glutamate were diluted in assay buffer containing 10 mM HEPES acid, 10 mM HEPES salt, pH 7.4, 100 mM NaCl, 3 mM MgCl2 and 10 μM GDP. Human mGlu2 receptor-containing membranes were thawed on ice and diluted in assay buffer supplemented with 14 μg/ml saponin. Membranes were pre-incubated with compound alone or together with a predefined (˜EC20) concentration of glutamate (PAM assay) for 30 min at 30° C. After addition of [^35S]GTPγS (f.c. 0.1 nM) microplates were shaken briefly and further incubated to allow [^35S]GTPγS incorporation on activation (30 minutes, 30° C.). Final assay mixtures contained 7 μg of membrane protein in 10 mM HEPES acid, 10 mM HEPES salt, pH 7.4, 100 mM NaCl, 3 mM MgCl2,10 μM GDP and 10 μg/ml saponin. Total reaction volume was 200 μl. Reactions were terminated by rapid filtration through Unifilter-96 GF/B filter plates (Packard, Meriden, Conn.) using a 96-well Packard filtermate harvester. Filters were washed 6 times with ice-cold 10 mM NaH2PO4/10 mM Na2HPO4, pH 7.4. Filters were then air-dried, and 40 μl of liquid scintillation cocktail (Microscint-O) was added to each well. Membrane-bound radioactivity was counted in a Microplate Scintillation and Luminescence Counter from Packard.
The concentration-response curves of representative compounds of the present invention—obtained in the presence of EC20 of mGluR2 agonist glutamate to determine positive allosteric modulation (PAM)—were generated using the Lexis software interface (developed at J&J). Data were calculated as % of the control glutamate response, defined as the maximal response that is generated upon addition of glutamate alone. Sigmoid concentration-response curves plotting these percentages versus the log concentration of the test compound were analyzed using non-linear regression analysis. The concentration producing half-maximal effect is then calculated as EC50. The pEC50 values below are calculated as the −log EC50 (wherein EC50 is expressed in mol/L). […]

male Wiga Wistar rats = experiment: Conditioned avoidance response (CAR) test in rats; format: in vivo; conditions: for ED50: Rattus norvegicus, criterion median avoidance latency >8 s
Experimental: On the day of experiments, the mice were brought into the procedural room. They were housed individually and allowed to acclimate for at least a half hour prior to testing. Although the studies were conducted during the light cycle (from 8:00 to 16:00 h), the procedure room was only sparsely lit (3 to 30 LUX) to provide better contrast for the video tracking. Local lighting was used for the injection procedures. During each trial, an individual mouse was placed in an open field arena (grey PVC cylinder with a height of 40 cm and a diameter of 22.5 cm). Each arena was placed on an infrared LED (8×8 LEDs)-lit box (white PVC squared box; 40×40 cm^2; height 12.5 cm). Each mouse was placed in the center of the arena and allowed to explore freely for 30 min. After each trial, the arena was cleaned with a wet and subsequently with a dry cleaning cloth. An infrared sensitive tube camera and a white light source (in arena: 4-7 LUX) were mounted to the ceiling above the observation chamber to record and input activity to a computer. Animal behavior was recorded and analyzed using the Noldus Ethovision XT Video Tracking System (Version 3.1; Noldus, Wageningen, The Netherlands). The total distance traveled (cm) was calculated. Data were then exported to data management systems for further analysis and reporting. Phencyclidine (PCP)-Induced Hyperlocomotion in Mice Test compound or solvent was administered at a pre-defined time before measurement (standard: 30 min) to male NMRI mice that were challenged with phencyclidine (PCP; 5 mg/kg, s.c.) 30 min before measurement. Activity was measured for a period of 30 min. Criterion for drug-induced inhibition of hyperlocomotion: total distance<5500 counts (3.9% false positives in controls; n=154). Conditioned Avoidance Response (CAR) Test Apparatus The apparatus consisted of an inner box surrounded by an outer box. The inner box was composed of four walls of transparent, synthetic material (length×width×height: 30×30×30 cm), an open top, and a grid floor made of 15 pairs of iron bars (2 mm diameter; 6 mm inter-bar distance). Odd and even bars were connected with a source of alternative current (1.0 mA; Coulbourn Instruments Solid State Shocker/Distributor), which could be interrupted by a switch. The outer box was composed of the same material (length×width×height: 40×40×36 cm), also with an open top, with a distance of 5 cm between the inner and outer box on all sides. To decrease the amount of environmental stimuli, three walls of the outer box were made non-transparent. The front wall was left transparent to allow the necessary inspection of the animal during the test. The upper edge of the outer and inner box served as a target for the rats on which to jump with fore- and hind-paws, respectively. Avoidance Conditioning and Selection of Animals From their arrival in the laboratory on the experimental day, male Wiga Wistar rats (230±30 g) were housed in individual cages provided with bedding material. […] Experimental Sessions The rats were tested 3 times, i.e. at 60, 90 and 120 min after the injection of test compound or solvent. Latency to avoidance was recorded. […] Sleep Wake Electroencephalography (SW-EEG) in Rats SW-EEG analyses are a highly sensitive read-out of a compound's central functional activity that may provide additional insight in the potential therapeutic application (i.e. via drug classification fingerprinting). […]

rats = experiment: Sleep wake electroencephalography (SW-EEG) in rats; format: in vivo
Experimental: On the day of experiments, the mice were brought into the procedural room. They were housed individually and allowed to acclimate for at least a half hour prior to testing. Although the studies were conducted during the light cycle (from 8:00 to 16:00 h), the procedure room was only sparsely lit (3 to 30 LUX) to provide better contrast for the video tracking. Local lighting was used for the injection procedures. During each trial, an individual mouse was placed in an open field arena (grey PVC cylinder with a height of 40 cm and a diameter of 22.5 cm). Each arena was placed on an infrared LED (8×8 LEDs)-lit box (white PVC squared box; 40×40 cm^2; height 12.5 cm). Each mouse was placed in the center of the arena and allowed to explore freely for 30 min. After each trial, the arena was cleaned with a wet and subsequently with a dry cleaning cloth. An infrared sensitive tube camera and a white light source (in arena: 4-7 LUX) were mounted to the ceiling above the observation chamber to record and input activity to a computer. Animal behavior was recorded and analyzed using the Noldus Ethovision XT Video Tracking System (Version 3.1; Noldus, Wageningen, The Netherlands). The total distance traveled (cm) was calculated. Data were then exported to data management systems for further analysis and reporting. Phencyclidine (PCP)-Induced Hyperlocomotion in Mice Test compound or solvent was administered at a pre-defined time before measurement (standard: 30 min) to male NMRI mice that were challenged with phencyclidine (PCP; 5 mg/kg, s.c.) 30 min before measurement. Activity was measured for a period of 30 min. Criterion for drug-induced inhibition of hyperlocomotion: total distance<5500 counts (3.9% false positives in controls; n=154). […] Latency to avoidance was recorded. […] Sleep Wake Electroencephalography (SW-EEG) in Rats SW-EEG analyses are a highly sensitive read-out of a compound's central functional activity that may provide additional insight in the potential therapeutic application (i.e. via drug classification fingerprinting). […]

[1] = po, compound administered orally (*), read-out: ED50 CAR-Inh. (inhibition of conditioned avoidance response), administered orally

SMILES | inhibition of PCP-induced hyperlocomotion (in words) (male NMRI mice) | ED50 (male NMRI mice) [mg/kg] | EC50 (human mGluR2 receptor) [nM] | melting point [°C] | inhibition of the conditioned avoidance response (in words) (male Wiga Wistar rats) | ED50 (male Wiga Wistar rats; [1]) [mg/kg] | effect on REM sleep (rats; oral administration) | lowest active dose for decrease of REM sleep (rats; p.o.) [mg/kg] | effect on REM sleep (rats; 3 mg/kg, p.o.) | ED50 (male Wiga Wistar rats; not marked as oral, read-out: ED50 CAR-Inh. (inhibition of conditioned avoidance response)) [mg/kg]
Cc1ccc(-n2ccc3cc(-c4ccn5c(CC6CC6)nnc5c4Cl)cc(F)c32)cn1 [Compound 31] | inhibited | 7.1 | 22.9 | 243.8 |  |  |  |  |  | 
Clc1c(-c2ccc3c(ccn3-c3cccnc3)c2)ccn2c(CC3CC3)nnc12 [Compound 17, 8-Chloro-3-cyclopropylmethyl-7-[1-(pyridin-3-yl)-1H-indol-5-yl]-[1,2,4]triazolo[4,3-a]pyridine] | inhibited | 10.7 | 79.4 |  | inhibited | 20 | dose-dependently decrease REM sleep | 10 |  | 
N[C@@]1(C(=O)O)CS(=O)(=O)[C@H]2[C@H](C(=O)O)[C@H]21 [LY404039, reference compound] |  |  |  |  |  |  |  |  | affect REM sleep | 
O[C@H]1CC[C@H](n2ccc3cc(-c4ccn5c(CC6CC6)nnc5c4C(F)(F)F)ccc32)CC1 [Compound 4] | inhibited | 13.2 | 11.2 | 206.9 | inhibited | ≥ 40 |  |  |  | 20
